The values that follow come from patent US20250064773A1, “TARGETING ERO1 ALPHA WITH AURONE DERIVATIVES” (West Virginia University Board of Governors on behalf of …, priority 2021, published 2025).

The subject of one test is myeloma cells lines. In words: MTT viability assay, myeloma cell lines. The class given is cell-based.
For a further test, the target named is T1, ERO1β (Homo sapiens, UniProt Q86YB8).
T1 construct: endogenous in cells; host or cells: PC-9
T1 sequence (Q86YB8 34-467): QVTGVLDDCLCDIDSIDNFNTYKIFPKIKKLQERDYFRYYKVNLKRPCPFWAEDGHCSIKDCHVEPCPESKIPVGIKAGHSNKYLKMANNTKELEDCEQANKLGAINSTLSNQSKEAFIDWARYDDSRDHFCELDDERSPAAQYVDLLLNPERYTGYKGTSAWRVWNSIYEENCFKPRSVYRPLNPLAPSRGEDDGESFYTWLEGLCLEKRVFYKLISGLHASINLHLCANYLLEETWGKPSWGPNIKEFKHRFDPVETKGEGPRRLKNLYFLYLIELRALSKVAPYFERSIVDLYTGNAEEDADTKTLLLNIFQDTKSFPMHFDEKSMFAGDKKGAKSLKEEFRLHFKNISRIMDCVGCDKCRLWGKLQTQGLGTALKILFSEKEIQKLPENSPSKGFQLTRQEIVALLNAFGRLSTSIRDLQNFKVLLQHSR
The experiment in a line: Cellular thermal shift assay (CETSA) in PC-9 cells, ERO1β. The class given is cell-based. Particulars: 100 μM. The source says:
To date activity of T151742 towards other flavoenzymes has not been identified at this time. We utilized the Cellular Thermal Shift Assay (CETSA) to determine target engagement of T151742 in vitro using the non-small cell lung cancer (NSCLC) cell line PC-9. The EGFR driven PC-9 cell line was chosen as new treatment strategies are needed in EGFR driven NSCLC as most patients relapse and become resistant to current targeted therapies with development of further mutations such as T790M, C797S as well as emergence of EGFR independent tumors^42, 43. […] First, we determined the aggregation temperature (Tagg) of ERO1α, ERO1β, and LSD-1, which are all FAD dependent enzymes and potential in vitro targets of T15742. […]
Upon addition of T151742, Tagg was quantified for ERO1α, ERO1β, and LSD-1. Quantification of the average of n=3 independent experiments based on western blot analysis for ERO1α, ERO1β, and LSD-1. […] Cellular viability was determined by MTT assay. n=3 independent experiments performed in quadruplicates. ****p<0.0001; by two-way ANOVA.
Cell Lines: PC-9 cell line used was obtained from Sigma Aldrich and grown in RPMI 1640 medium with 10% fetal bovine serum and 1% penicillin/streptomycin. […] Plate was then read on the BioTek Cytation 5 at 530/590 nm. […]

In turn, `CN(C)c1ccc(/C=C2\Oc3cc(O)ccc3C2=O)cc1` [Compound T151742] came in with an IC50 in the test on myeloma cells lines of 7 to 9 µM. Also, the “change of Tagg for ERO1β” value at ERO1β is given as “did not change”.

As a reminder, the IC50 is the concentration at which inhibition is half-maximal.
